In PubChem BioAssay (NCI):
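Each compound was tested at five concentrations against cells in 96-well plates for 48 hours. TGI: total growth inhibition.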

Legend:
Assay in all cases: NCI tumour cell line growth inhibition, 48 h
MALME-3M melanoma = test system: MALME-3M melanoma
U251 CNS = test system: U251 CNS
T-47D breast = test system: T-47D breast
HT29 colon = test system: HT29 colon
ACHN renal = test system: ACHN renal
SF-268 CNS = test system: SF-268 CNS
HCT-15 colon = test system: HCT-15 colon
IGROV1 ovarian = test system: IGROV1 ovarian
HS 578T breast = test system: HS 578T breast
OVCAR-5 ovarian = test system: OVCAR-5 ovarian
SK-MEL-5 melanoma = test system: SK-MEL-5 melanoma
RPMI-8226 leukemia = test system: RPMI-8226 leukemia
NCI-H23 lung = test system: NCI-H23 lung
NCI-H460 lung = test system: NCI-H460 lung
SF-295 CNS = test system: SF-295 CNS
SNB-75 CNS = test system: SNB-75 CNS
786-0 renal = test system: 786-0 renal
CAKI-1 renal = test system: CAKI-1 renal
UACC-62 melanoma = test system: UACC-62 melanoma
A498 renal = test system: A498 renal
OVCAR-4 ovarian = test system: OVCAR-4 ovarian
SK-MEL-2 melanoma = test system: SK-MEL-2 melanoma
EKVX NSCLC = test system: EKVX NSCLC
NCI-H226 lung = test system: NCI-H226 lung
MDA-MB-435 = test system: MDA-MB-435
SK-MEL-28 melanoma = test system: SK-MEL-28 melanoma
SF-539 CNS = test system: SF-539 CNS
UACC-257 melanoma = test system: UACC-257 melanoma
HCC-2998 colon = test system: HCC-2998 colon
UO-31 renal = test system: UO-31 renal
SW-620 colon = test system: SW-620 colon
MCF7 breast = test system: MCF7 breast
HL-60(TB) leukemia = test system: HL-60(TB) leukemia
MDA-N = test system: MDA-N
SN12C renal = test system: SN12C renal
HOP-62 NSCLC = test system: HOP-62 NSCLC
HCT-116 colon = test system: HCT-116 colon
A549 NSCLC = test system: A549 NSCLC
NCI/ADR-RES ovarian = test system: NCI/ADR-RES ovarian
SK-OV-3 ovarian = test system: SK-OV-3 ovarian
TK-10 renal = test system: TK-10 renal
DU-145 prostate = test system: DU-145 prostate
OVCAR-8 ovarian = test system: OVCAR-8 ovarian
OVCAR-3 ovarian = test system: OVCAR-3 ovarian
COLO 205 colon = test system: COLO 205 colon
BT-549 breast = test system: BT-549 breast
PC-3 prostate = test system: PC-3 prostate
M14 melanoma = test system: M14 melanoma
MDA-MB-231 breast = test system: MDA-MB-231 breast
SNB-19 CNS = test system: SNB-19 CNS
K-562 leukemia = test system: K-562 leukemia
NCI-H522 lung = test system: NCI-H522 lung
KM12 colon = test system: KM12 colon
LOX IMVI melanoma = test system: LOX IMVI melanoma
HOP-92 NSCLC = test system: HOP-92 NSCLC
RXF 393 renal = test system: RXF 393 renal
SR leukemia = test system: SR leukemia
CCRF-CEM leukemia = test system: CCRF-CEM leukemia
MOLT-4 leukemia = test system: MOLT-4 leukemia

In the case of `CCCCCCCCCCCCCCCC[N+](C)(C)CCl`, the TGI (MALME-3M melanoma) is reported as 7.38 µM, the TGI (U251 CNS) is reported as 3.04 µM and the TGI (T-47D breast) is reported as 23.6 µM. For the same compound, the TGI (HT29 colon) was 3.82 µM, the TGI (ACHN renal) was 8.36 µM and the TGI (SF-268 CNS) was 9.38 µM. For the same compound, the TGI (HCT-15 colon) was 20.9 µM, the TGI (IGROV1 ovarian) was 1.31 µM and the TGI (HS 578T breast) was 5.26 µM. It also gave a TGI (OVCAR-5 ovarian) of 21.6 µM, a TGI (SK-MEL-5 melanoma) of 2.94 µM and a TGI (RPMI-8226 leukemia) of 5.16 µM. For the same compound, the TGI (NCI-H23 lung) was 27.8 µM, the TGI (NCI-H460 lung) was 4.74 µM and the TGI (SF-295 CNS) was 6.06 µM. For the same compound, the TGI (SNB-75 CNS) was 5.18 µM, the TGI (786-0 renal) was 3.31 µM and the TGI (CAKI-1 renal) was 8.74 µM. The TGI (UACC-62 melanoma) was 6.46 µM, the TGI (A498 renal) was 32.2 µM and the TGI (OVCAR-4 ovarian) was 8.44 µM. For the same compound, the TGI (SK-MEL-2 melanoma) was 49.8 µM, the TGI (EKVX NSCLC) was 22.8 µM and the TGI (NCI-H226 lung) was 6.25 µM. For the same compound, the TGI (MDA-MB-435) was > 39.2 µM, the TGI (SK-MEL-28 melanoma) was > 50.7 µM and the TGI (SF-539 CNS) was 8.13 µM. For the same compound, the TGI (UACC-257 melanoma) was 21.1 µM, the TGI (HCC-2998 colon) was 3.18 µM and the TGI (UO-31 renal) was 27.9 µM. The TGI (SW-620 colon) was > 100 µM, the TGI (MCF7 breast) was > 28.9 µM and the TGI (HL-60(TB) leukemia) was 3.12 µM. For the same compound, the TGI (MDA-N) was 15.4 µM, the TGI (SN12C renal) was 12.8 µM and the TGI (HOP-62 NSCLC) was 6.69 µM. The TGI (HCT-116 colon) was 4.98 µM, the TGI (A549 NSCLC) was 22.3 µM and the TGI (NCI/ADR-RES ovarian) was 49 µM. The TGI (SK-OV-3 ovarian) was 27.7 µM, the TGI (TK-10 renal) was 6.41 µM and the TGI (DU-145 prostate) was 17.2 µM. The TGI (OVCAR-8 ovarian) was 7.43 µM, the TGI (OVCAR-3 ovarian) was 14.6 µM and the TGI (COLO 205 colon) was 4.16 µM. The TGI (BT-549 breast) was 7.87 µM, the TGI (PC-3 prostate) was 7.96 µM and the TGI (M14 melanoma) was 6.38 µM. The TGI (MDA-MB-231 breast) was 4.32 µM and the TGI (SNB-19 CNS) was 3.81 µM.

Compound `CC(CSc1nc2c(c(=N)n1-c1ccccc1)c(=S)n(-c1ccccc1)c(=S)n2-c1ccccc1)CN(C)C` (stereo not drawn) has a TGI (MALME-3M melanoma) of 3.23 µM, a TGI (U251 CNS) of 3.28 µM and a TGI (ACHN renal) of 3.15 µM. The TGI (SF-268 CNS) was 3.24 µM, the TGI (HCT-15 colon) was 3.17 µM and the TGI (IGROV1 ovarian) was 2.79 µM. The TGI (HS 578T breast) was > 28.7 µM, the TGI (OVCAR-5 ovarian) was 26.8 µM and the TGI (SK-MEL-5 melanoma) was 4.42 µM. For the same compound, the TGI (RPMI-8226 leukemia) was 1.4 µM, the TGI (NCI-H23 lung) was 4.89 µM and the TGI (K-562 leukemia) was 3.14 µM. For the same compound, the TGI (NCI-H460 lung) was 4.14 µM, the TGI (SF-295 CNS) was 16.7 µM and the TGI (SNB-75 CNS) was 3.41 µM. The TGI (786-0 renal) was 2.37 µM, the TGI (NCI-H522 lung) was 2.83 µM and the TGI (KM12 colon) was 5.6 µM. The TGI (CAKI-1 renal) was 2.97 µM, the TGI (UACC-62 melanoma) was 3.15 µM and the TGI (A498 renal) was 6 µM. It also gave a TGI (LOX IMVI melanoma) of 2.57 µM, a TGI (OVCAR-4 ovarian) of 3.2 µM and a TGI (SK-MEL-2 melanoma) of 5.29 µM. It also gave a TGI (EKVX NSCLC) of 3.12 µM, a TGI (HOP-92 NSCLC) of 2.97 µM and a TGI (NCI-H226 lung) of 14.2 µM. The TGI (MDA-MB-435) was 3.13 µM, the TGI (SK-MEL-28 melanoma) was 4.67 µM and the TGI (RXF 393 renal) was 3.32 µM. It also gave a TGI (SF-539 CNS) of 7.9 µM, a TGI (UACC-257 melanoma) of 3.43 µM and a TGI (HCC-2998 colon) of 2.7 µM. For the same compound, the TGI (SR leukemia) was 0.938 µM, the TGI (SW-620 colon) was 8.1 µM and the TGI (CCRF-CEM leukemia) was 1.49 µM. The TGI (MCF7 breast) was 1.05 µM, the TGI (HL-60(TB) leukemia) was 2.37 µM and the TGI (MDA-N) was 3.76 µM. It also gave a TGI (SN12C renal) of 3.55 µM, a TGI (HOP-62 NSCLC) of 3.62 µM and a TGI (HCT-116 colon) of 3.07 µM. For the same compound, the TGI (NCI/ADR-RES ovarian) was 11.8 µM, the TGI (SK-OV-3 ovarian) was 11.6 µM and the TGI (TK-10 renal) was 3.07 µM. It also gave a TGI (DU-145 prostate) of 3.03 µM, a TGI (OVCAR-8 ovarian) of 3 µM and a TGI (OVCAR-3 ovarian) of 3.09 µM. For the same compound, the TGI (MOLT-4 leukemia) was 3.02 µM, the TGI (COLO 205 colon) was 3.48 µM and the TGI (BT-549 breast) was 3.52 µM. It also gave a TGI (PC-3 prostate) of 3.38 µM, a TGI (M14 melanoma) of 3.56 µM and a TGI (MDA-MB-231 breast) of 3.46 µM. It also gave a TGI (SNB-19 CNS) of 17.8 µM.

For `CSC1=C(C)C(/C=N/Nc2ccc([N+](=O)[O-])cc2)=C(C)N(c2ccccc2)S1(=O)=O`, the TGI (MALME-3M melanoma) was > 100 µM, the TGI (U251 CNS) was > 100 µM and the TGI (T-47D breast) was > 100 µM. For the same compound, the TGI (HT29 colon) was > 100 µM, the TGI (ACHN renal) was > 100 µM and the TGI (SF-268 CNS) was > 100 µM. The TGI (HCT-15 colon) was > 100 µM, the TGI (IGROV1 ovarian) was > 100 µM and the TGI (OVCAR-5 ovarian) was > 100 µM. The TGI (SK-MEL-5 melanoma) was > 100 µM, the TGI (RPMI-8226 leukemia) was > 100 µM and the TGI (NCI-H23 lung) was > 100 µM. For the same compound, the TGI (K-562 leukemia) was > 100 µM, the TGI (NCI-H460 lung) was > 100 µM and the TGI (SF-295 CNS) was > 100 µM. The TGI (SNB-75 CNS) was > 100 µM, the TGI (786-0 renal) was > 100 µM and the TGI (NCI-H522 lung) was > 100 µM. The TGI (KM12 colon) was > 100 µM, the TGI (CAKI-1 renal) was > 100 µM and the TGI (UACC-62 melanoma) was > 100 µM. For the same compound, the TGI (A498 renal) was > 100 µM, the TGI (LOX IMVI melanoma) was > 100 µM and the TGI (OVCAR-4 ovarian) was > 100 µM. For the same compound, the TGI (SK-MEL-2 melanoma) was > 100 µM, the TGI (EKVX NSCLC) was > 100 µM and the TGI (HOP-92 NSCLC) was > 100 µM. For the same compound, the TGI (NCI-H226 lung) was > 100 µM, the TGI (MDA-MB-435) was > 100 µM and the TGI (SK-MEL-28 melanoma) was > 100 µM. The TGI (RXF 393 renal) was > 100 µM, the TGI (SF-539 CNS) was > 100 µM and the TGI (UACC-257 melanoma) was > 100 µM. For the same compound, the TGI (HCC-2998 colon) was > 100 µM, the TGI (UO-31 renal) was > 100 µM and the TGI (SR leukemia) was > 100 µM. For the same compound, the TGI (SW-620 colon) was > 100 µM, the TGI (CCRF-CEM leukemia) was > 100 µM and the TGI (MCF7 breast) was > 100 µM. The TGI (HL-60(TB) leukemia) was 17.5 µM, the TGI (MDA-N) was > 100 µM and the TGI (SN12C renal) was > 100 µM. The TGI (HOP-62 NSCLC) was > 100 µM, the TGI (HCT-116 colon) was > 100 µM and the TGI (A549 NSCLC) was > 100 µM. For the same compound, the TGI (NCI/ADR-RES ovarian) was > 100 µM, the TGI (SK-OV-3 ovarian) was > 100 µM and the TGI (TK-10 renal) was > 100 µM. The TGI (DU-145 prostate) was > 100 µM, the TGI (OVCAR-8 ovarian) was > 100 µM and the TGI (OVCAR-3 ovarian) was > 100 µM. For the same compound, the TGI (MOLT-4 leukemia) was > 100 µM, the TGI (COLO 205 colon) was > 100 µM and the TGI (BT-549 breast) was > 100 µM. The TGI (PC-3 prostate) was > 100 µM, the TGI (M14 melanoma) was > 100 µM and the TGI (MDA-MB-231 breast) was > 100 µM. The TGI (SNB-19 CNS) was > 100 µM.
